For data set [1], the target named is T1, NTRK2 (Homo sapiens (Human), UniProt Q16620). As to the kind of experiment: Promega NTRK2 NanoBRET live-cell target engagement. Format: cell-based. The following applies: live cells. The text has this:
FIGS. 6A-6B show the live-cell engagement (FIG. 6A) concept and an NTRK2 example (FIG. 6B). FIG. 6A: Depiction of Promega's NanoBRET target engagement system as per their website. The system involves cell-based competitive displacement of a fluorescent NanoBRET tracer bound reversibly to a NanoLuc fusion protein. Test compounds displace the tracer dependent on their affinity for the target and […] the NanoBRET signal. FIG. 6B: Example of the use of Promega's NTRK2 NanoBRET cell-based system. Each NTRK2 compound (Cpd) was assayed in kinase assays and in cells. Multiple NTRK2 compounds enter the cell and are potent nanomolar inhibitors in these assays (% normalized to no Cpd).
As described elsewhere herein, hit compounds, including but not limited to CDD-2262, and its smaller analog, CDD-2330, were synthesized off-DNA and evaluated for NTRK2 activity.
A general note: In BRET a luciferase serves as donor, and the signal depends on an acceptor being close.

For data set [2] the following is noted: mouse, microsomes.
For data set [3], the target named is T1, NTRK2. As to the kind of experiment: NTRK2 apparent inhibition constant (Ki app).
The conditions of data set [4]: human, microsomes.
Data set [5] deals with T1, NTRK2. Briefly: NTRK2 inhibition (IC50). Format: biochemical.
Data set [6] can be described thus: Metabolic stability in human liver microsomes (HLM). (In general: Liver microsomes are a subcellular fraction often used to study metabolism.)
Data set [7] is described as follows: Metabolic stability in mouse liver microsomes (MLM).
The subject of data set [8] is PTGS2 mRNA in endometriotic stromal cells. Briefly: PGE2-stimulated PTGS2 gene expression in endometriotic stromal cells (RT-PCR). The conditions noted are these: 1 μM PGE2, 6-hour period. Format: cell-based. The text has this:
FIG. 12A: estrogen, secreted by the ovary and endometriotic lesions, signals to macrophages and nerve fibers, including production of BDNF/NT-3 and pro-inflammatory cytokines, respectively. […] Activated CREB acts on the PTGS2 promoter, creating a positive feedback mechanism that results in elevated inflammation. PGE2 signaling also stimulates PKA/PKC signaling to induce the production of BDNF and NTF3 expression. […] Gene expression of PTGS2 was quantified using quantitative real time PCR (RT-PCR).
Thus, the present disclosure provides evidence that administration of CDD-2330 results in suppression of markers associated with inflammation, and accordingly, is suitable for the treatment of endometriosis.

Data set [9] in a line: Metabolic stability in mouse and human liver microsomes. Type of data set: in vitro ADME. The conditions noted are these: mouse and human liver microsomes in vitro.

Read-outs that look alike come from different tables or passages of the source.

T1 sequence (Q16620 32-822): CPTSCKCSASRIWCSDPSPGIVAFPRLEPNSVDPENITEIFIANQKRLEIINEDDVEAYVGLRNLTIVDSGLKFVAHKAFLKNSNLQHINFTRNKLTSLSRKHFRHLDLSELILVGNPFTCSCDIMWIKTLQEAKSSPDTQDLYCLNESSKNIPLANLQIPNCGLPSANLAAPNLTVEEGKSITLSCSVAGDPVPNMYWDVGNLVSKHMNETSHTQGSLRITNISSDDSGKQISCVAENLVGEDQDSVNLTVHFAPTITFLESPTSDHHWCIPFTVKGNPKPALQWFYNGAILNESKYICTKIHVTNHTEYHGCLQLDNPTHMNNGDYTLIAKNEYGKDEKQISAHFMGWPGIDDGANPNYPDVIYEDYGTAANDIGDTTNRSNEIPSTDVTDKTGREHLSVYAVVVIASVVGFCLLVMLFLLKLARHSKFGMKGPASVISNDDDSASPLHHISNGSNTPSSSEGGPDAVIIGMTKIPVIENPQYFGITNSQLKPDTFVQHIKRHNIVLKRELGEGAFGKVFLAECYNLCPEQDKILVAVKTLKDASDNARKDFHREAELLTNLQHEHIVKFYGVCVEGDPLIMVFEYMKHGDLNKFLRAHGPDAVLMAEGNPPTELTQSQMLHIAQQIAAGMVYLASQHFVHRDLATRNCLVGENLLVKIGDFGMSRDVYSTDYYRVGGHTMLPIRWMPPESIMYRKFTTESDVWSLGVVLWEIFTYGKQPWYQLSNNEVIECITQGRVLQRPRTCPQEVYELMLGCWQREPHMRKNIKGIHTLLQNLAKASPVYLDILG

Consider “1-cyclobutyl-1-(pyrazolo[1,5-a]pyridin-5-ylmethyl)-3-(4-(trifluoromethoxy)phenyl)urea [CDD-2219]”, for which the “cell penetration and effect in NanoBRET assays” value on NTRK2 [1] is reported as “able to penetrate cell membranes to induce an effect”. For the same compound, in [2], the “MLM t1/2” value was determined as 0.47 h. Also, on NTRK2 [3] (read-out: NTRK2 Ki^app, apparent inhibition constant), the Ki came to 21 ± 7 nM. Besides, in data set [4], the “HLM t1/2” value was 0.913 h. On NTRK2 [5], this compound had an IC50 of 13 nM.
`O=C(O)c1cnn2ccc(CN(C(=O)Nc3ccc(OC(F)(F)F)cc3)C3CCC3)cc12` [CDD-2262, 5-((1-cyclobutyl-3-(4-(trifluoromethoxy)phenyl)ureido)methyl)pyrazolo[1,5-a]pyridine-3-carboxylic acid]: the results for the half-life in data set [6], in [7] and in data set [9] were 7.37 h, 8.87 h and greater than 7 h, respectively. In addition, the “concentration at which PTGS2 mRNA is statistically suppressed” value in data set [8] was greater than 100 nM. Moreover, the “cell penetration and effect in NanoBRET assays” value at NTRK2 [1] was “able to penetrate cell membranes to induce an effect”. Besides, at NTRK2 [3], the Ki came out at 17 ± 10 nM. Also, 32 nM corresponded to half-maximal inhibition against NTRK2 [5] (IC50).

Broadly, the IC50 is the point on the concentration scale where inhibition reaches its midpoint. Higher therefore signals weaker potency in that assay. Usually half-life stands for how long it takes for the measured level to halve. A higher half-life goes with slow loss.

The record behind these values is US20260049077A1, “Neurotrophic Receptor Tyrosine Kinase (NTRK) Inhibitors and Methods Using Same” (Baylor College of Medicine, priority 2022, published 2026).
